Reference: patent publication US20230286960A1, “ALLOSTERIC CHROMENONE INHIBITORS OF PHOSPHOINOSITIDE 3-KINASE (PI3K) FOR THE TREATMENT OF DISEASE” (Petra Pharma Corporation, priority 2020, published 2023)

Experiments:
Mouse PK Assays = assay type: in vivo; design: PK-Mouse: PO AUC-last/dose: unit not given here; conditions: fed
[1] = target: human full length PIK3CA wild-type (p110α/p85α) (Homo sapiens (Human), UniProt P42336); experiment: PI3K-alpha kinase (PIK3CA) activity, wild-type, Transcreener ADP2 FI assay; conditions: PI3K-α (PIK3CA) biochemical
Protocol: (§1) PI3K-Alpha Kinase (PIK3CA) Activity, Wild-Type and H1047R Mutant and Determining IC50 Values for Inhibitors
(§2) Recombinant, catalytically active human full length PIK3KA Wild-type and H1047R mutant were purchased as 1:1 complex of N-terminal 6× his tagged p110 ? (catalytic) and untagged p85 ? (regulatory subunit) from EMD Millipore Sigma (cat. no. 14-602M and 14-792M, respectively). The enzyme stocks were diluted to 5× stocks in buffer (20 mM HEPES pH 7.4, 100 mM NaCl, 0.5 mM EGTA, 0.01% triton-x-100) just before use. PIP2diC8 (Avanti Polar Lipids Inc., cat. no. 850185) or phosphoinositol-4,5-bisphosphate with phosphoserine (PIP2:PS) membrane (Thermo Fisher Scientific, cat. no. PV5100) was used as lipid substrates. PIP2diC8 lyophilized powder and PIP2:PS (1:19) membrane stock (1 mM in PIP2) were separately dissolved in milliQ water to a concentration of 250 uM and stored in −20° C. 10 mM stocks of compounds were serially diluted (3×) in neat DMSO and stored in a dessicator at room temperature. 5× compound stocks in 25% DMSO were prepared fresh from neat DMSO stocks.
(§3) Wild-type (WT) and H1047R mutant protein, along with buffer components (except ATP), were incubated with or without compound at 27° C. for 1 h. After incubation, the reaction was initiated by the addition of 5 uL of 125 uM ATP. A typical assay mixture (25 uL) comprised 40 mM HEPES buffer, pH 7.4, 25 mM MgCl2, 0.01% v/v triton-X-100, 5% v/v DMSO, 20 mM NaCl, 1-5 nM wt or H1047R, 25 uM ATP, and 50 uM PIP2diC8 or PIP2 in membrane. The reaction was allowed to proceed until about […] (2.5 uM ADP) after which time, 10 uL of reaction mixture was quenched with 25 uL of transcreener reagent (Transcreener ADP2 FI assay kit, BellBrook labs, Cat. No. 3013). The contents were incubated at rt for 1 h and fluorescence was measured using a plate reader (Paradigm, Molecular Devices). The same assay was also run at pH 6.0 or 6.4 using MOPS buffer (Fisher BioReagents, CAS 1132-61-2). A calibration curve was generated under identical buffer conditions with varying ADP amounts. Using that, the observed fluorescence was converted to uM ADP. A plot between [ADP] and log[I] yielded the dose-response curves that enabled the calculation of IC50s.

[2] = target: human full length PIK3CA H1047R mutant (p110α/p85α) (Homo sapiens (Human), UniProt P42336, H1047R); experiment: PI3K-alpha kinase (PIK3CA) activity, H1047R mutant, Transcreener ADP2 FI assay; conditions: PI3K-α (PIK3CA) biochemical
Protocol: as §1, §2, §3

[3] = PO 10 mg/kg, 20% DMSO/60% PEG400/20% Water
[4] = PO 50 mg/kg, 20% DMSO/60% PEG400/20% Water
[5] = PO 10 mg/kg, 30% SBE-beta-cyclodextrin
[6] = PO 100 mg/kg, 20% DMSO/60% PEG400/20% H2O

Chain of human full length PIK3CA wild-type (p110α/p85α) (P42336 whole entry): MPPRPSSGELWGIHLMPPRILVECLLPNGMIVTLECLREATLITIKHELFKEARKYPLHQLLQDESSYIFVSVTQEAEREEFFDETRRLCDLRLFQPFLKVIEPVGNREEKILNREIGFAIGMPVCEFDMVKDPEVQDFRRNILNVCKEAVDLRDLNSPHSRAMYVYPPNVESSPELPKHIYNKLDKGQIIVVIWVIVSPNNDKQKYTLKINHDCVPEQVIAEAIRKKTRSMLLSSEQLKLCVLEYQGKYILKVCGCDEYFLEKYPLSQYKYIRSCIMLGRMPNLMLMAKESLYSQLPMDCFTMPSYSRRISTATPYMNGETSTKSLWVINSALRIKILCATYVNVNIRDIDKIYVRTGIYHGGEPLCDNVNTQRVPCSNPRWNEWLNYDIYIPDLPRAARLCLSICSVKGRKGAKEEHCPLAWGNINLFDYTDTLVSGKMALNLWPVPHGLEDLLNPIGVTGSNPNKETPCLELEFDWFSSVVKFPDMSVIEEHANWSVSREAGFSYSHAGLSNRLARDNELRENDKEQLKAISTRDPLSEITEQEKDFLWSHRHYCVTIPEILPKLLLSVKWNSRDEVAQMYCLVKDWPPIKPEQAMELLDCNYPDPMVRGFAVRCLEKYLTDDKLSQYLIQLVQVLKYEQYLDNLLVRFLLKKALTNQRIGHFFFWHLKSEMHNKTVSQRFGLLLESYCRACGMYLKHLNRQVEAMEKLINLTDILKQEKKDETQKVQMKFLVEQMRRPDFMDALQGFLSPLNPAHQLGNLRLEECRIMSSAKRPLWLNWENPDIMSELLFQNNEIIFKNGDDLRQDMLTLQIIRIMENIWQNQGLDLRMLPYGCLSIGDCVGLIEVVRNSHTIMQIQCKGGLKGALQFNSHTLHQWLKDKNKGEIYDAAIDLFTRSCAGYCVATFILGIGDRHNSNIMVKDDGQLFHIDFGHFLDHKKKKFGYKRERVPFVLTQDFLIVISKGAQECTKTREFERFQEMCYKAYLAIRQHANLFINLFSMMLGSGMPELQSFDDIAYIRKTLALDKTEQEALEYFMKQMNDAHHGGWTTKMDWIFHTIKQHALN
Chain of human full length PIK3CA wild-type (p110α/p85α) (P27986 whole entry partner): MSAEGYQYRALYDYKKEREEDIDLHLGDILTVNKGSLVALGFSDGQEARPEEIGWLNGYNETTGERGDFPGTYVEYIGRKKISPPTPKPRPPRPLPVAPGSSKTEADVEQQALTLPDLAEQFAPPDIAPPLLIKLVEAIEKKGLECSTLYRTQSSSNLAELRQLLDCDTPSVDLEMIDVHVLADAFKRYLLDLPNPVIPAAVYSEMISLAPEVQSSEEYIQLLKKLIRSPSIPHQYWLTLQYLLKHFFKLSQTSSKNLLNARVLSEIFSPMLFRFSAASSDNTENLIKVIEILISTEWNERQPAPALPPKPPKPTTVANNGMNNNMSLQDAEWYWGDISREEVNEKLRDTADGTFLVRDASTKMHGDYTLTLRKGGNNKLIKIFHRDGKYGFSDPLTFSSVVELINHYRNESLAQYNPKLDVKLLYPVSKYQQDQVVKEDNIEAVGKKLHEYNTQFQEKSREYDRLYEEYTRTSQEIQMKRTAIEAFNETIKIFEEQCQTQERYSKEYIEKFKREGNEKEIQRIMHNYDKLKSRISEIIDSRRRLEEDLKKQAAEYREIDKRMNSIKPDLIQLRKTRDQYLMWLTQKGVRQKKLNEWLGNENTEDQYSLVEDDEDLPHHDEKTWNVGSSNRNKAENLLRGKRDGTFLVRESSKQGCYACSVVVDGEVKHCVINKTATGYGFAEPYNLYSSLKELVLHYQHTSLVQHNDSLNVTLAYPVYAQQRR
Chain of human full length PIK3CA H1047R mutant (p110α/p85α) (P42336 whole entry H1047R): as the sequence (P42336 whole entry) above, with H1047R counted along it
Chain of human full length PIK3CA H1047R mutant (p110α/p85α) (P27986 whole entry partner): as the sequence (P27986 whole entry partner) above

PK-Mouse: F % Calcd (Mouse PK Assays; [3]) [%] | PK-Mouse: PO AUC-last/dose (Mouse PK Assays; [3]) | PK-Mouse: F % Calcd (Mouse PK Assays; [4]) [%] | PK-Mouse: PO AUC-last/dose (Mouse PK Assays; [4]) | IC50 [1] [nM] | IC50 [2] [nM] | PK-Mouse: F % Calcd (Mouse PK Assays; [5]) [%] | PK-Mouse: PO AUC-last/dose (Mouse PK Assays; [5]) | PK-Mouse: F % Calcd (Mouse PK Assays; [6]) [%] | PK-Mouse: PO AUC-last/dose (Mouse PK Assays; [6]) | Structure (SMILES)
86 | 1800 | 33 | 700 |  |  |  |  |  |  | Cc1cc(C(C)Nc2ccccc2C(=O)O)c2oc(N3Cc4ccccc4C3)cc(=O)c2c1 (single isomer, unassigned) [Example 363, 2-[1-(2-Isoindolin-2-yl-6-methyl-4-oxo-chromen-8-yl)ethylamino]benzoic acid]
 |  |  |  | > 10000 | < 500 |  |  |  |  | Cc1cc(C(C)Nc2ccc(C#N)cc2C(=O)O)c2oc(N3CCC(C)(C)CC3)cc(=O)c2c1 (centres unmarked) [Example 6, 5-Cyano-2-[1-[2-(4,4-dimethyl-1-piperidyl)-6-methyl-4-oxo-chromen-8-yl]ethylamino]benzoic acid]
 |  | 280 | 960 |  |  | 110 | 390 | 220 | 760 | Cc1cc(C(C)Nc2ccccc2C(=O)O)c2oc(N3CCC(C)(C)CC3)cc(=O)c2c1 (single isomer, unassigned) [Example 366, 2-[1-[2-(4,4-Dimethyl-1-piperidyl)-6-methyl-4-oxo-chromen-8-yl]ethylamino]benzoic acid]
 |  |  |  | < 500 | < 500 |  |  |  |  | Cc1cc([C@@H](C)Nc2ccc(Cl)nc2C(=O)O)c2oc(N3CCCCC3)c(C)c(=O)c2c1 [Example 309, 6-Chloro-3-[[(1R)-1-[3,6-dimethyl-4-oxo-2-(1-piperidyl)chromen-8-yl]ethyl]amino]pyridine-2-carboxylic acid]
